Reference: ChEMBL document CHEMBL1140651, “N-(6,7-dichloro-2,3-dioxo-1,2,3,4-tetrahydroquinoxalin-5-yl)-N-alkylsulfonamides as peripherally restricted N-methyl-D-aspartate receptor antagonists for the treatment of pain” (Bioorg Med Chem Lett, 2007)
In brackets after ≈: the same amount, converted by molar mass. Several values for one entry are separate records, joined by “and”; a condition that tells them apart may be missing. Equal values may be shown once.

What was measured:
[1] = Permeability from apical to basolateral side of the Caco-2 cell membrane; assay type: ADME, cell-based; conditions: human, read-out: permeability
[2] = biological target: Glutamate receptor ionotropic, NMDA 1 (Homo sapiens, UniProt Q05586); assay: Antagonist activity at human NMDA NR1 receptor; assay type: functional
[3] = AUC in Sprague-Dawley rat at 5 mg/kg, po; assay type: ADME, organism-based; parameters: dose 5 mg/kg, route oral; conditions: plasma
[4] = Solubility of the compound; assay type: physicochemical
[5] = test system: Caco-2; assay: Ratio of permeability from basolateral to apical over apical to basolateral side of the Caco-2 cell membrane; assay type: ADME, cell-based; conditions: human
[6] = test system: Liver microsomes; assay: Metabolic stability in human liver microsome; assay type: ADME
[7] = (§1) Bioavailability in Sprague-Dawley rat at 5 mg/kg, po; assay type: ADME, organism-based; conditions: Sprague-Dawley, in vivo
[8] = test system: Liver microsomes; assay: Metabolic stability in rat liver microsome; assay type: ADME
[9] = test system: Rattus norvegicus; assay: Anticonvulsant activity in Swiss Webster mouse at 100 mg/kg by MES assay; assay type: functional
[10] = test system: Rattus norvegicus; assay: Analgesic activity in rat formalin pain model assessed as reduction in pain response at 50 mg/kg, po; assay type: functional; parameters: scale not given: the % may be the effect or the level left
[11] = test system: Rattus norvegicus; assay: Analgesic activity in rat formalin pain model assessed as reduction in pain response at 50 mg/kg, ip; assay type: functional; parameters: scale not given: the % may be the effect or the level left; conditions: route intraperitoneal
[12] = test system: Rattus norvegicus; assay: […] in […] at 300 mg/kg, ip by MES assay; assay type: functional; conditions: route intraperitoneal
[13] = test system: Rattus norvegicus; assay: as §1; assay type: ADME, organism-based; conditions: in vivo

SMILES | Papp A→B [1] [×10⁻⁶ cm/s] | IC50 [2] | AUC [3] [ng·h/mL] | solubility [4] [µg/mL] | Ratio [5] | Activity [6] | bioavailability [7] [%] | Activity [8] | Activity [9] [%] | Activity [10] [%] | Activity [11] [%] | Activity [12] [%] | F [13]
CS(=O)(=O)N(CC1CCCO1)c1c(Cl)c(Cl)cc2[nH]c(=O)c(=O)[nH]c12 (stereo unspecified) | 1.52 | 59 nM | 922 | 16 (≈ 39.2 µM) | 7.55 | Active | 31 | Active |  |  |  |  | 
Cc1c(Cl)cc2[nH]c(=O)c(=O)[nH]c2c1N(CCO)S(C)(=O)=O |  | 14 nM | 605 | 70 (≈ 201 µM) |  | Active | 4 | Active | 0 |  |  |  | 
CS(=O)(=O)N(CC1CCCCO1)c1c(Cl)c(Cl)cc2[nH]c(=O)c(=O)[nH]c12 (stereo unspecified) | < 0.01 | 39 nM | 1490 | 25 (≈ 59.2 µM) |  | Active | 53 | Active |  |  |  |  | 
CS(=O)(=O)N(Cc1cccc(F)c1)c1c(Cl)c(Cl)cc2[nH]c(=O)c(=O)[nH]c12 | 1.75 | 45 nM | 589 | 23 (≈ 53.2 µM) | 4.07 | Active | 10 | Active |  |  |  |  | 
CS(=O)(=O)N(CCCO)c1c(Cl)c(Cl)cc2[nH]c(=O)c(=O)[nH]c12 |  | 41 nM | 136 | 76 (≈ 199 µM) |  | Active | 1 | Active |  |  |  |  | 
CCS(=O)(=O)N(CCC(F)(F)F)c1c(Cl)c(Cl)cc2[nH]c(=O)c(=O)[nH]c12 |  | 109 nM and 20 nM and 27 nM | 3920 |  |  | Active | 32 | Active |  | 30 | 60 | 0 | 
CCc1cc2[nH]c(=O)c(=O)[nH]c2c(N(CCCOC)S(C)(=O)=O)c1Cl | 0.01 | 49 nM | 632 | 78 (≈ 200 µM) |  | Active | 47 | Active |  |  |  |  | 
CC(O)CN(c1c(Cl)c(Cl)cc2[nH]c(=O)c(=O)[nH]c12)S(C)(=O)=O (stereo unspecified) |  | 40 nM | 680 | 76 (≈ 199 µM) |  | Active | 1 | Active |  |  |  |  | 
COCCCN(c1c(Cl)c(Cl)cc2[nH]c(=O)c(=O)[nH]c12)S(C)(=O)=O | 2.06 |  |  | 79 (≈ 199 µM) | 6.05 | Active | 41 | Active |  |  |  | 20 | 43% and 39%
CS(=O)(=O)N(CCC(F)(F)F)c1c(Cl)c(Cl)cc2[nH]c(=O)c(=O)[nH]c12 | 0.41 | 22 nM and 11 nM and 18 nM |  | 56 (≈ 133 µM) | 15 | Active |  | Active |  |  | 40 | 0 | 
Cc1c(Cl)cc2[nH]c(=O)c(=O)[nH]c2c1N(CC(=O)O)S(C)(=O)=O |  | 2 nM | 1500 |  |  | Active | 7 | Active | 87.5 |  |  |  | 
COCCCN(c1cc(Cl)cc2[nH]c(=O)c(=O)[nH]c12)S(C)(=O)=O | 0.01 | 728 nM |  | 72 (≈ 199 µM) | 0.1 | Active |  | Active |  |  |  |  | 
COc1cccc(CN(c2c(Cl)c(Cl)cc3[nH]c(=O)c(=O)[nH]c23)S(C)(=O)=O)c1 | 3.43 | 12 nM | 152 | 40 (≈ 90 µM) | 4.67 | Active | 8 | Active |  |  |  |  | 
CCOCCN(c1c(Cl)c(Cl)cc2[nH]c(=O)c(=O)[nH]c12)S(C)(=O)=O | 10 | 209 nM | 2260 | 79 (≈ 199 µM) | 1.38 | Active | 78 | Active |  |  |  |  | 
COCCN(c1c(C)c(Cl)cc2[nH]c(=O)c(=O)[nH]c12)S(C)(=O)=O | 0.01 | 74 nM | 2620 | 72 (≈ 199 µM) |  | Active | 100 | Active |  |  |  |  | 
CCc1c(Cl)cc2[nH]c(=O)c(=O)[nH]c2c1N(CCO)S(C)(=O)=O |  | 58 nM | 183 | 72 (≈ 199 µM) |  | Active | 1 | Active | 0 |  |  |  | 
CCOCCCN(c1c(Cl)c(Cl)cc2[nH]c(=O)c(=O)[nH]c12)S(C)(=O)=O | 0.44 | 19 nM | 1270 | 82 (≈ 200 µM) | 28.4 | Active | 33 | Active |  |  |  |  | 
COCCN(c1c(Cl)c(Cl)cc2[nH]c(=O)c(=O)[nH]c12)S(C)(=O)=O | 0.01 | 38 nM | 1080 | 76 (≈ 199 µM) |  | Active | 33 | Active |  |  |  |  | 
CCOCCOCCN(c1c(Cl)c(Cl)cc2[nH]c(=O)c(=O)[nH]c12)S(C)(=O)=O | 0.97 | 166 nM | 840 | 88 (≈ 200 µM) | 12.4 | Active | 90 | Active |  |  |  |  | 
CS(=O)(=O)N(CC(=O)O)c1c(Cl)c(Cl)cc2[nH]c(=O)c(=O)[nH]c12 |  | 2 nM | 393 | 76 (≈ 199 µM) |  | Active |  | Active | 100 |  |  |  | 
COCCN(c1c(Cl)c(C)cc2[nH]c(=O)c(=O)[nH]c12)S(C)(=O)=O | 0.14 | 77 nM | 1190 | 72 (≈ 199 µM) | 30.6 | Active | 57 | Active |  |  |  |  | 
Cc1cc2[nH]c(=O)c(=O)[nH]c2c(N(CCO)S(C)(=O)=O)c1Cl |  | 4 nM | 791 | 70 (≈ 201 µM) |  | Active | 9 | Active | 0 |  |  |  | 
Cc1cc2[nH]c(=O)c(=O)[nH]c2c(N(CC(=O)O)S(C)(=O)=O)c1Cl |  | 1 nM | 155 | 72 (≈ 199 µM) |  | Active | 5 | Active | 62.5 |  |  |  | 
